The text below walks through data of publication PMC7074166, “Screening for Small Molecule Modulators of Trypanosoma brucei Hsp70 Chaperone Activity Based upon Alcyonarian Coral-Derived Natural Products” (Marine Drugs, 2020).

The test relates to bloodstream form T. b. brucei parasites. As to the kind of experiment: Resazurin-based anti-trypanosomal assay on bloodstream form T. b. brucei parasites. It counts as cell-based, Trypanosoma brucei brucei. The note with it: for IC50: Table 1, T. b. brucei parasites cultured in vitro, dose-response, read-out: IC50/μM. As for the experimental part: Bloodstream form T. b. brucei Lister 927 variant 221 strain parasites were cultured in filter sterilized complete Iscoves Modified Dulbeccos Media (IMDM) based HM1-9 medium (IMDM base powder, […] sodium bicarbonate, 1 mM hypoxanthine, 1 mM sodium pyruvate, 0.16 mM thymidine, 0.05 mM bathocuprone sulphate acid, 10% (v/v) heat inactivated foetal bovine serum, 1.5 mM L-cysteine, 0.2 mM β-mercaptoethanol, pH 7.5) in a humidified chamber at 37 °C with an atmosphere of 5% CO2. Parasite growth was monitored using a Neubauer haemocytometer to count the cell number, after which cells were diluted, according to their density, in the described pre-warmed media.
All compounds of interest were resuspended to stocks of 30 mM in DMSO and stored at −80 °C prior to use in in vitro experiments. For assessment of anti-trypanosomal activity, compounds were added to in vitro cultures of bloodstream form T. b. brucei parasites (1 × 10^5 cells/mL) in 96-well plates at a fixed concentration of 20 μM. After an incubation period of 48 h, the number of parasites surviving drug exposure were determined using a resazurin-based cytotoxicity assay. Resazurin is an oxidation–reduction sensitive dye that is reduced by living cells to resorufin. Resorufin is a fluorophore (Excitation560/Emission590) and thus was quantified in a multi-well fluorescence plate reader. Results are expressed as % parasite viability—the resorufin fluorescence in small molecule-treated wells relative to untreated controls. Assessment of each small molecule was conducted in duplicate, with error bars representing standard deviation (SD). […] The compounds were added to in vitro cultures of bloodstream form T. b. brucei parasites (1 × 10^5 cells/mL) in 96-well plates in a 3-fold dilution series with 100 μM as the highest concentration. After an incubation period of 48 h, the number of parasites surviving drug exposure were determined as previously mentioned. The % parasite viability was determined as previously mentioned. The IC50 (the concentration of compound required to decrease cell viability of T. b. brucei parasites by 50% compared to those grown in the absence of the compound) values for each of the compounds were determined from a dose–response curve by non-linear regression generated using GraphPad Prism® (v. 7.0; San Diego, CA, USA) software. For comparative purposes, pentamidine at a fixed concentration of 1 μM was employed as a drug standard.

Setting [1] is: Trypanosoma brucei, Table S1, 48 select compounds, T. b. brucei, 48 h, read-out: IC50/.

pIC50: −log10 of the molar value. Where two headings read alike, the source gives them in different places. A value given as a limit tells only on which side of the number the result lay.

In the case of “6-chloro-7-((2E,6E)-3,7,11-trimethyldodeca-2,6,10-trien-1-yl)-9H-purine [Compound 18]”, under “48 h”, the IC50 was determined as 9.3 µM. Besides, the pIC50 (Table S1, 48 select compounds, T. b. brucei, 48 h, read-out: IC50/) was 5.03.
Take `CC(C)=CCC/C(C)=C/CCC(C)=CCn1cnc(N)c2ncnc1-2` [Compound 6, 3-((6E)-3,7,11-Trimethyldodeca-2,6,10-trien-1-yl)-3H-purin-6-amine]: the IC50 (Trypanosoma brucei, 48 h) amounted to 12.7 µM. The pIC50 under setting [1] is 4.89.
The matching figures for `CC(C)=CCC/C(C)=C/CCC(C)=CCn1cnc2c(N)ncnc21` [Compound 7, 9-((6E)-3,7,11-trimethyldodeca-2,6,10-trien-1-yl)-9H-purin-6-amine]: 47.7 µM and 4.32.
Turning to `CC(C)=CCC/C(C)=C/CC/C(C)=C/CC/C(C)=C/Cn1cnc2c(N)ncnc21` [Compound 8, 9-((2E,6E,10E)-3,7,11,15-Tetramethylhexadeca-2,6,10,14-tetraen-1-yl)-9H-purin-6-amine], the IC50 (Trypanosoma brucei, 48 h) worked out at 13.4 µM. For the same compound, the pIC50 under setting [1] was 4.87.
For the compound `CC(C)=CCC/C(C)=C/Cn1cnc2c(N(C)C)ncnc21` [Compound 9, (E)-9-(3,7-Dimethylocta-2,6-dien-1-yl)-N,N-dimethyl-9H-purin-6-amine], under “Trypanosoma brucei, 48 h”, the IC50 was determined as 28.4 µM. Moreover, under setting [1], the pIC50 was 4.55.
On to `CC(C)=CCC/C(C)=C/CCC(C)=CCn1cnc2c(N(C)C)ncnc21` [Compound 11, N,N-Dimethyl-9-((6E)-3,7,11-trimethyldodeca-2,6,10-trien-1-yl)-9H-purin-6-amine], for which, for the setting “Trypanosoma brucei, 48 h”, the IC50 was found to be 9.5 µM. Also, the pIC50 under setting [1] was 5.02.
On to `CC(C)=CCC/C(C)=C/CCC(C)=CCn1cnc(N(C)C)c2ncnc1-2` [Compound 12, N,N-dimethyl-3-((6E)-3,7,11-trimethyldodeca-2,6,10-trien-1-yl)-3H-purin-6-amine], for which the IC50 (Trypanosoma brucei, 48 h) is 14 µM.
In the case of `CC(C)=CCC/C(C)=C/CC/C(C)=C/CC/C(C)=C\Cn1cnc2c(N(C)C)ncnc21` [Compound 13, N,N-Dimethyl-9-((2Z,6E,10E)-3,7,11,15-tetramethylhexadeca-2,6,10,14-tetraen-1-yl)-9H-purin-6-amine], the IC50 (Trypanosoma brucei, 48 h) was 8.7 µM. Also, the pIC50 under setting [1] was 5.06.
The matching figures for `CC(C)=CCC/C(C)=C/CC/C(C)=C/CC/C(C)=C/Cn1cnc2c(N(C)C)ncnc21` [Compound 14, N,N-dimethyl-9-((2E,6E,10E)-3,7,11,15-tetramethylhexadeca-2,6,10,14-tetraen-1-yl)-9H-purin-6-amine]: 9.2 µM and 5.04.
Take `CC(C)=CCC/C(C)=C/Cn1cnc2c(Cl)ncnc21` [Compound 15, (E)-6-Chloro-9-(3,7-dimethylocta-2,6-dien-1-yl)-9H-purine]: the IC50 (Trypanosoma brucei, 48 h) was 12.2 µM. In addition, the pIC50 under setting [1] is 4.91.
The matching figures for `CC(C)=CCC/C(C)=C/Cn1cnc2ncnc(Cl)c21` [Compound 16, (E)-6-chloro-7-(3,7-dimethylocta-2,6-dien-1-yl)-7H-purine]: 11 µM and 4.96.
Take `CC(C)=CCC/C(C)=C/CCC(C)=CCn1cnc2c(Cl)ncnc21` [Compound 17, 6-Chloro-9-((6E)-3,7,11-trimethyldodeca-2,6,10-trien-1-yl)-9H-purine]: where the note is “Trypanosoma brucei, 48 h”, the IC50 was determined as 12.9 µM. The pIC50 under setting [1] was 4.89.
On to `CC(C)=CCC/C(C)=C/CC/C(C)=C/CC/C(C)=C/Cn1cnc2c(Cl)ncnc21` [Compound 19, 6-Chloro-9-((2E,6E,10E)-3,7,11,15-tetramethylhexadeca-2,6,10,14-tetraen-1-yl)-9H-purine], for which, for the setting “Trypanosoma brucei, 48 h”, the IC50 came to 6.8 µM. Further, the pIC50 under setting [1] is 5.17.
Consider `CC(C)=CCC/C(C)=C/CC/C(C)=C/CC/C(C)=C/Cn1cnc2ncnc(Cl)c21` [Compound 20, 6-chloro-7-((2E,6E,10E)-3,7,11,15-tetramethylhexadeca-2,6,10,14-tetraen-1-yl)-7H-purine], for which the IC50 (Trypanosoma brucei, 48 h) was found to be 11 µM. The pIC50 under setting [1] is 4.96.
The matching figures for `CC(C)=CCC/C(C)=C/CC/C(C)=C/CC/C(C)=C\Cn1cnc2ncnc(Cl)c21` [Compound 21, 6-chloro-7-((2Z,6E,10E)-3,7,11,15-tetramethylhexadeca-2,6,10,14-tetraen-1-yl)-7H-purine]: 19.1 µM and 4.72.
On to `CC(C)=CCC/C(C)=C/Cn1cnc2c1c(=O)[nH]c(=O)n2C` [Compound 29, (E)-7-(3,7-Dimethylocta-2,6-dien-1-yl)-3-methyl-3,7-dihydro-1H-purine-2,6-dione], for which the IC50 (Trypanosoma brucei, 48 h) is 18.9 µM. Moreover, the pIC50 under setting [1] is 4.72.
With `CC(C)=CCC/C(C)=C/CC/C(C)=C\Cn1cnc2c1c(=O)[nH]c(=O)n2C` [Compound 30, 3-Methyl-7-((2Z,6E)-3,7,11-trimethyldodeca-2,6,10-trien-1-yl)-3,7-dihydro-1H-purine-2,6-dione], the IC50 (Trypanosoma brucei, 48 h) turned out to be 4.6 µM. The pIC50 under setting [1] is 5.34.
With `CC(C)=CCC/C(C)=C/CC/C(C)=C/CC/C(C)=C\Cn1cnc2c1c(=O)[nH]c(=O)n2C` [Compound 32, 3-Methyl-7-((2Z,6E,10E)-3,7,11,15-tetramethylhexadeca-2,6,10,14-tetraen-1-yl)-3,7-dihydro-1H-purine-2,6-dione], the IC50 (Trypanosoma brucei, 48 h) stood at 5.9 µM.
For the compound `CC(C)=CCC/C(C)=C/CC/C(C)=C/CC/C(C)=C/Cn1cnc2c1c(=O)[nH]c(=O)n2C` [Compound 33, 3-methyl-7-((2E,6E,10E)-3,7,11,15-tetramethylhexadeca-2,6,10,14-tetraen-1-yl)-3,7-dihydro-1H-purine-2,6-dione], where the note is “Trypanosoma brucei, 48 h”, the IC50 was determined as 10.2 µM. For the same compound, the pIC50 under setting [1] is 4.99.
On to `CC(C)=CCC/C(C)=C/CC/C(C)=C/CC/C(C)=C\Cn1cnc2c1c(=O)n(C)c(=O)n2C` [Compound 36, 1,3-Dimethyl-7-((2Z,6E,10E)-3,7,11,15-tetramethylhexadeca-2,6,10,14-tetraen-1-yl)-3,7-dihydro-1H-purine-2,6-dione], for which the IC50 (Trypanosoma brucei, 48 h) was found to be 5.2 µM. In addition, the pIC50 under setting [1] is 5.29.
Regarding `CC(C)=CCC/C(C)=C/CC/C(C)=C/CC/C(C)=C/Cn1cnc2c1c(=O)n(C)c(=O)n2C` [Compound 37, 1,3-dimethyl-7-((2E,6E,10E)-3,7,11,15-tetramethylhexadeca-2,6,10,14-tetraen-1-yl)-3,7-dihydro-1H-purine-2,6-dione], the IC50 (Trypanosoma brucei, 48 h) is 21.6 µM.
As for `CC(C)=CCC/C(C)=C/CC12NC(=O)N=C1N(C)C(=O)N(C)C2=O` (stereo not shown) [Compound 42, (E)-5-(3,7-Dimethylocta-2,6-dien-1-yl)-1,3-dimethyl-5,7-dihydro-1H-purine-2,6,8(3H)-trione], under “Trypanosoma brucei, 48 h”, the IC50 was 10.9 µM. Further, under setting [1], the pIC50 was 4.96.
The matching figures for `CC(C)=CCC/C(C)=C/CCC(C)=CCn1c(=O)[nH]c2c(=O)n(C)c(=O)n(C)c21` [Compound 44, 1,3-dimethyl-9-((6E)-3,7,11-trimethyldodeca-2,6,10-trien-1-yl)-7,9-dihydro-1H-purine-2,6,8(3H)-trione]: 16.6 µM and 4.78.
As for `CC(C)=CCC/C(C)=C/CCC(C)=CCn1cc2c(=O)ncn(CC=C(C)CC/C=C(\C)CCC=C(C)C)c2n1` [Compound 48, 2,7-bis((6E)-3,7,11-trimethyldodeca-2,6,10-trien-1-yl)-2,7-dihydro-4H-pyrazolo[3,4-d]pyrimidin-4-one], the pIC50 was greater than 5.15 (Trypanosoma brucei, T. b. brucei parasites, stated as bound, read-out: IC50 values) and 5.26 under setting [1]. The IC50 (Trypanosoma brucei, 48 h) was 5.5 µM.
Turning to `CC(C)=CCC/C(C)=C/CC/C(C)=C/Cn1cnc2nncc-2c1O` [Compound 49, 5-((2E,6E)-3,7,11-trimethyldodeca-2,6,10-trien-1-yl)-5H-pyrazolo[3,4-d]pyrimidin-4-ol], under “Trypanosoma brucei, 48 h”, the IC50 is 16.7 µM. Moreover, the pIC50 under setting [1] is 4.78.
On to `CC(C)=CCC/C(C)=C/CC/C(C)=C/CC/C(C)=C/Cn1cnc2c(cnn2C/C=C(\C)CC/C=C(\C)CC/C=C(\C)CCC=C(C)C)c1=O` [Compound 50, 1,5-Bis((2E,6E,10E)-3,7,11,15-tetramethylhexadeca-2,6,10,14-tetraen-1-yl)-1,5-dihydro-4H-pyrazolo[3,4-d]pyrimidin-4-one], for which the IC50 (Trypanosoma brucei, 48 h) stood at 2.1 µM. The pIC50 under setting [1] is 5.68.
With `CC(C)=CCC/C(C)=C/CCC(C)=CCn1ccc(=O)[nH]c1=O` [Compound 55, 1-((6E)-3,7,11-Trimethyldodeca-2,6,10-trien-1-yl)pyrimidine-2,4(1H,3H)-dione], under “Trypanosoma brucei, 48 h”, the IC50 was found to be 16.5 µM. Moreover, the pIC50 under setting [1] is 4.78.
